pIC50: −log10 of the molar value.
Each molecule was assayed against IRAK4 kinase (Homo sapiens (Human), UniProt Q9NWZ3) (assay: IRAK4 kinase activity test (KinEASE-STK S1 HTRF kit)). Conditions: 2.5 nM IRAK4 kinase, 7 μM ATP, 37° C. 120 min.
Type: biochemical
Protocol: Then 2.5 nM 1RAK4 kinase (Carna), 1 μM biotinylated polypeptide substrate (Cisbio) and 7 μM adenosine triphosphate (Sigma-Aldrich) were sequentially added, and the mixtures were incubated at 37° C. for 120 min. Subsequently, an anti-phosphoserine/threonine antibody (Cisbio) conjugated with a europium element compound and conjugated modified XL665 streptavidin (Cisbio) were added to the reaction systems to stop the reactions. After 1 h of incubation at room temperature, the fluorescence intensity of each well was measured at the excitation wavelength of 337 nm and the emission wavelengths of 620 nm and 665 nm with a microplate reader EnVision (PerkinElmer) in the HTRF mode, and Ratio values were calculated using the formula Ratio=(665 nm/620 nm)×[…]. The inhibition rate of the compound at each concentration was calculated by comparing the fluorescence intensity ratio with that of the control group. Then a non-linear curve fitting of logarithmic concentration-inhibition rate was performed using GraphPad Prism 7, and the IC50 value of the compound was obtained.

Chain of IRAK4 kinase (Q9NWZ3 whole entry): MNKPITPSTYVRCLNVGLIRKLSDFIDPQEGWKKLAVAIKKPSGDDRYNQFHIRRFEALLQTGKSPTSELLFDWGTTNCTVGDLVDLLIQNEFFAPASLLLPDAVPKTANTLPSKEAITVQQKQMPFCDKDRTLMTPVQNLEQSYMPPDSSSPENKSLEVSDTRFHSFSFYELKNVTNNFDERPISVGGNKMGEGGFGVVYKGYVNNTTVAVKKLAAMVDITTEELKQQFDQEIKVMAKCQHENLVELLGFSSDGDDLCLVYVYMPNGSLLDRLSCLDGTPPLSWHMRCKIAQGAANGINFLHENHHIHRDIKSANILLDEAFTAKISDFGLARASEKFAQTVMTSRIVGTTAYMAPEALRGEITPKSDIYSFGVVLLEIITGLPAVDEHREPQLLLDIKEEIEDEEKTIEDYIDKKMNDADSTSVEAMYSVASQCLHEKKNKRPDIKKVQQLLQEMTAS

Structure (SMILES)	pIC50
O=C1CCN(c2cc(C(=O)N3CCN(C[C@H]4CC[C@H](n5cc(NC(=O)c6cnn7ccc(N8C[C@H]9C[C@@H]8CO9)nc67)c(C(F)F)n5)CC4)CC3)ccc2Cl)C(=O)N1 [Example 3, 5-((1R,4R)-2-oxa-5-azabicyclo[2.2.1]heptan-5-yl)-N-(1-((1R,4R)-4-((4-(4-chloro-3-(2,4-dioxotetrahydropyrimidin-1(2H)-yl)benzoyl)piperazin-1-yl)methyl)cyclohexyl)-3-(difluoromethyl)-1H-pyrazol-4-yl)pyrazolo[1,5-a]pyrimidine-3-carboxamide]	7.17
CN(CC1CCN(C(=O)c2ccc(Cl)c(N3CCC(=O)NC3=O)c2)CC1)C[C@H]1CC[C@H](n2cc(NC(=O)c3cnn4ccc(N5C[C@H]6C[C@@H]5CO6)nc34)c(C(F)F)n2)CC1 [Example 4, 5-((1R,4R)-2-oxa-5-azabicyclo[2.2.1]heptan-5-yl)-N-(1-((1R,4R)-4-((((1-(4-chloro-3-(2,4-dioxotetrahydropyrimidin-1(2H)-yl)benzoyl)piperidin-4-yl)methyl)(methyl)amino)methyl)cyclohexyl)-3-(difluoromethyl)-1H-pyrazol-4-yl)pyrazolo[1,5-a]pyrimidine-3-carboxamide]	7.43
O=C1CCN(c2cc(C(=O)N3CCC4(CCN(CC5CCN(c6ccc(NC(=O)c7cnn8ccc(N9C[C@H]%10C[C@@H]9CO%10)nc78)c(Cl)c6)CC5)CC4)CC3)ccc2Cl)C(=O)N1 [Example 6, 5-((1R,4R)-2-oxa-5-azabicyclo[2.2.1]heptan-5-yl)-N-(2-chloro-4-(4-((9-(4-chloro-3-(2,4-dioxotetrahydropyrimidin-1(2H)-yl)benzoyl)-3,9-diazaspiro[5.5]undecan-3-yl)methyl)piperidin-1-yl)phenyl)pyrazolo[1,5-a]pyrimidine-3-carboxamide]	6.28
O=C1CCN(c2cc(C(=O)N3CCC(CCOC[C@H]4CC[C@@H](n5cc(NC(=O)c6cnn7ccc(N8C[C@H]9C[C@@H]8CO9)nc67)c(C(F)F)n5)CC4)CC3)ccc2Cl)C(=O)N1 [Example 9, 5-((1R,4R)-2-oxa-5-azabicyclo[2.2.1]heptan-5-yl)-N-(1-((1R,4R)-4-((2-(1-(4-chloro-3-(2,4-dioxotetrahydropyrimidin-1(2H)-yl)benzoyl)piperidin-4-yl)ethoxy)methyl)cyclohexyl)-3-(difluoromethyl)-1H-pyrazol-4-yl)pyrazolo[1,5-a]pyrimidine-3-carboxamide]	6.88
O=C1CCN(c2cc(C(=O)N3CCC(C#CCN4CCC(n5cc(NC(=O)c6cnn7ccc(N8C[C@H]9C[C@@H]8CO9)nc67)c(C(F)F)n5)CC4)CC3)ccc2Cl)C(=O)N1 [Example 12, 5-((1R,4R)-2-oxa-5-azabicyclo[2.2.1]heptan-5-yl)-N-(1-(1-(3-(1-(4-chloro-3-(2,4-dioxotetrahydropyrimidin-1(2H)-yl)benzoyl)piperidin-4-yl)prop-2-yn-1-yl)piperidin-4-yl)-3-(difluoromethyl)-1H-pyrazol-4-yl)pyrazolo[1,5-a]pyrimidine-3-carboxamide]	6.57
O=C1CCN(c2cc(C(=O)N3CCC(CCCN4CCC(n5cc(NC(=O)c6cnn7ccc(N8C[C@H]9C[C@@H]8CO9)nc67)c(C(F)F)n5)CC4)CC3)ccc2Cl)C(=O)N1 [Example 14, 5-((1R,4R)-2-oxa-5-azabicyclo[2.2.1]heptan-5-yl)-N-(1-(1-(3-(1-(4-chloro-3-(2,4-dioxotetrahydropyrimidin-1(2H)-yl)benzoyl)piperidin-4-yl)propyl)piperidin-4-yl)-3-(difluoromethyl)-1H-pyrazol-4-yl)pyrazolo[1,5-a]pyrimidine-3-carboxamide]	6.91
O=C1CCN(c2ccc(C(=O)N3CCC4(CCC(CN5CCC(n6cc(NC(=O)c7cnn8ccc(N9CCOCC9)nc78)c(C(F)F)n6)CC5)CC4)CC3)cc2)C(=O)N1 [Example 27, N-(3-(difluoromethyl)-1-(1-((3-(4-(2,4-dioxotetrahydropyrimidin-1(2H)-yl)benzoyl)-3-azaspiro[5.5]undecan-9-yl)methyl)piperidin-4-yl)-1H-pyrazol-4-yl)-5-morpholinopyrazolo[1,5-a]pyrimidine-3-carboxamide]	7.87
O=C1CCN(c2cc(N3CCN(CCCCN4CCC(n5cc(NC(=O)c6cnn7ccc(N8C[C@H]9C[C@@H]8CO9)nc67)c(C(F)F)n5)CC4)CC3)ccc2Cl)C(=O)N1 [Example 51, 5-((1R,4R)-2-oxa-5-azabicyclo[2.2.1]heptan-5-yl)-N-(1-(1-(4-(4-(4-chloro-3-(2,4-dioxotetrahydropyrimidin-1(2H)-yl)phenyl)piperazin-1-yl)butyl)piperidin-4-yl)-3-(difluoromethyl)-1H-pyrazol-4-yl)pyrazolo[1,5-a]pyrimidine-3-carboxamide]	7.57
O=C1CCC(c2cc(C(=O)N3CCN(CCCC(=O)N4CCC(n5cc(NC(=O)c6cnn7ccc(N8CCOCC8)nc67)c(C(F)F)n5)CC4)CC3)ccc2F)C(=O)N1 (stereo not shown) [Example 62, N-(3-(difluoromethyl)-1-(1-(4-(4-(3-(2,6-dioxopiperidin-3-yl)-4-fluorobenzoyl)piperazin-1-yl)butanoyl)piperidin-4-yl)-1H-pyrazol-4-yl)-5-morpholinopyrazolo[1,5-a]pyrimidine-3-carboxamide]	7.54

Each molecule was assayed against IRAK4 protein in THP-1 cells (Homo sapiens (Human), UniProt Q9NWZ3) (assay: Degradation of IRAK4 in THP-1 cells, human IRAK4 AlphaLISA assay). Conditions: 24 h incubation.
Type: cell-based
Protocol: THP-1 cells (Stem Cell Bank, Chinese Academy of Sciences) were inoculated onto a 24-well cell culture plate at 0.95 mL/well, with a cell density of 5×10^5 cells/well. The cell plate was incubated overnight in a 37° C., 5% carbon dioxide incubator, and 50 μL of a solution of a compound in dimethyl sulfoxide was added, such that the final concentration of the compound fell within the range of 0.03-3000 nM. After another 24 h of incubation, cells were collected into 1.5 mL centrifuge tubes and centrifuged at 1000 rpm at 4° C. for 5 min. The cell pellets were washed twice with 1×DPBS. The resuspended cells were lysed with 200 μL of lysis buffer (Western and IP cell lysis buffer (Beyotime), supplemented with 1 mM phenylmethylsulfonyl fluoride and protease inhibitor cocktail (Beyotime)), left to stand on ice for 30 mini, and then centrifuged at 14,000 g at 4° C. for 10 min. The supernatant samples were assayed by Western Blot for IRAK4 protein levels.
The above cell lysates were also tested for IRAK4 degradation using a human IRAK4 AlphaLISA assay kit (PerkinElmer, AL3117C). The method is specifically as follows: 2-μL test samples of cell lysate supernatant were transferred to a white 384-well plate (PerkinElmer, 6007299), and 4 μL of 5× anti-IRAK4 receptor beads (PerkinElmer, final concentration of 10 μg/mL) was then added. The plate was incubated at 23° C. for 30 min. Then 4 μL of 5× biotin-labeled anti-IRAK4 antibody (PerkinElmer, final concentration of 1 nM) was added, and the plate was incubated at 23° C. for 60 min. Finally, 10 μL of 2′ streptavidin-labeled donor beads (final concentration of 40 μg/mL) was added to each well, and the plate was incubated in the dark at 23° C. for 30 min. After the incubation was complete, AlphaLISA signal values were measured on a microplate reader EnVision (PerkinElmer, 2105) in the AlphaScreen standard mode, and IRAK4 concentrations were calculated from these signal values. Then a non-linear curve fitting of logarithmic concentration-inhibition rate was performed using GraphPad Prism 7, and the DC50 and Dmax values of the compound were obtained.

Chain of IRAK4 protein in THP-1 cells (Q9NWZ3 whole entry): as above

Structure (SMILES)	DC50 [nM]	Dmax (%)	Dmax [%]
O=C1CCN(c2cc(C(=O)N3CCC(CCOC[C@H]4CC[C@@H](n5cc(NC(=O)c6cnn7ccc(N8C[C@H]9C[C@@H]8CO9)nc67)c(C(F)F)n5)CC4)CC3)ccc2Cl)C(=O)N1 [Example 9, 5-((1R,4R)-2-oxa-5-azabicyclo[2.2.1]heptan-5-yl)-N-(1-((1R,4R)-4-((2-(1-(4-chloro-3-(2,4-dioxotetrahydropyrimidin-1(2H)-yl)benzoyl)piperidin-4-yl)ethoxy)methyl)cyclohexyl)-3-(difluoromethyl)-1H-pyrazol-4-yl)pyrazolo[1,5-a]pyrimidine-3-carboxamide]	129	81.0	
O=C1CCN(c2cc(C(=O)N3CCC4(CCN(C[C@H]5CC[C@H](n6cc(NC(=O)c7cnn8ccc(N9CC%10(COC%10)C9)nc78)c(C(F)F)n6)CC5)CC4)CC3)ccc2Cl)C(=O)N1 [Example 48, N-(1-((1R,4R)-4-((9-(4-chloro-3-(2,4-dioxotetrahydropyrimidin-1(2H)-yl)benzoyl)-3,9-diazaspiro[5.5]undecan-3-yl)methyl)cyclohexyl)-3-(difluoromethyl)-1H-pyrazol-4-yl)-5-(2-oxa-6-azaspiro[3.3]heptan-6-yl)pyrazolo[1,5-a]pyrimidine-3-carboxamide]	5.55		94.4
CN(CCC1CCN(C(=O)c2ccc(F)c(C3CCC(=O)NC3=O)c2)CC1)C(=O)[C@H]1CC[C@H](n2cc(NC(=O)c3cnn4ccc(N5CCOCC5)nc34)c(C(F)F)n2)CC1 (stereo partly drawn) [Example 54, N-(3-(difluoromethyl)-1-((1R,4R)-4-((2-(1-(3-(2,6-dioxopyridin-3-yl)-4-fluorobenzoyl)piperidin-4-yl)ethyl)(methyl)carbamoyl)cyclohexyl)-1H-pyrazol-4-yl)-5-morpholinopyrazolo[1,5-a]pyrimidine-3-carboxamide]	8.13		88.2
COc1ccc(C(=O)N2CCC3(CCC(N(C)C[C@H]4CC[C@H](n5cc(NC(=O)c6cnn7ccc(N8CCOCC8)nc67)c(C(F)F)n5)CC4)CC3)CC2)cc1N1CCC(=O)NC1=O [Example 59, N-(3-(difluoromethyl)-1-((1R,4R)-4-(((3-(3-(2,4-dioxotetrahydropyrimidin-1(2H)-yl)-4-methoxybenzoyl)-3-azaspiro[5.5]undecan-9-yl)(methyl)amino)methyl)cyclohexyl)-1H-pyrazol-4-yl)-5-morpholinopyrazolo[1,5-a]pyrimidine-3-carboxamide]	7.92		70.8
CN(CCC1CCN(C(=O)c2ccc(Cl)c(N3CCC(=O)NC3=O)c2)CC1)C[C@]1(O)CC[C@@H](n2cc(NC(=O)c3cnn4ccc(N5C[C@H]6C[C@@H]5CO6)nc34)c(C(F)F)n2)CC1 [Example 65, 5-((1R,4R)-2-oxa-5-azabicyclo[2.2.1]heptan-5-yl)-N-(1-((1S,4S)-4-(((2-(1-(4-chloro-3-(2,4-dioxotetrahydropyrimidin-1(2H)-yl)benzoyl)piperidin-4-yl)ethyl)(methyl)amino)methyl)-4-hydroxycyclohexyl)-3-(difluoromethyl)-1H-pyrazol-4-yl)pyrazolo[1,5-a]pyrimidine-3-carboxamide]	14.3		87.2

— patent US20240368194A1, “IRAK4 DEGRADATION AGENT, AND PREPARATION METHOD THEREFOR AND USE THEREOF” (SHANGHAI LEADINGTAC PHARMACEUTICAL CO. LTD., priority 2021, published 2024)
